Laboratory results taken from patent US4946668A, “Tumor imaging with technetium labelled glucarate” (Centocor, Inc., priority 1988, dated 1990).

Test system: colorectal carcinoma (HT-29 cells)
Assay: Detection of colorectal carcinoma (HT-29 xenograft): scintigraphic imaging and uptake of radioactivity
Format: in vivo, female athymic nude mice
Description: Colorectal carcinoma was produced in female athymic nude mice by injecting subcutaneously 1×10^7 HT-29 cells (M.D. Anderson Hospital and Tumor Institute Houston, Tex.) per mouse in the hind limb. After 4 weeks, tumor bearing mice (2 per group) were injected intravenously with either sodium per-technetate (TcO4^-) or Tc-99m-glucarate (approximately350 uCi/mouse). […] After imaging at the last time point, animals were killed, tumors and organs were weighed and quantitated for the distribution of radioactivity.

[1] = 22 hours, approximately 350 uCi/mouse i.v.

`[Na+].[O]=[Tc](=[O])(=[O])[O-]` [TcO4^-, sodium pertechnetate] was tested, and the “% ID/gm at tumor site” value [1] was 0.29 ± 0.00 % ID/gm, the tumor/blood [1] was 2.08 ± 0.21 and the tumor/muscle [1] was 12.08 ± 3.41. The tumor visualization (images at 3, 5 and 24 hours) was “no tumor visualization was detected” and the “uptake of radioactivity seen in scintigraphic images” value (images at 3, 5 and 24 hours after injection) was “nonspecific uptake of radioactivity at the thyroid and stomach”.
